Source: US20120284812A1, “Herbicide-Tolerant Plants” (BASF AGROCHEMICAL PRODUCTS, B.V., priority 2009, published 2012)

Legend:
rice calli = experiment: Kill curves: tissue survival of rice calli on herbicide media; format: cell-based, Oryza sativa; conditions: determined by kill curves and observations of continued culture
Experimental: Once tissue culture conditions were determined, further establishment of selection conditions were established through the analysis of tissue survival in kill curves with cycloxydim, tepraloxydim, sethoxydim (FIG. 1) or haloxyfop (not shown). Careful consideration of accumulation of the herbicide in the tissue, as well as its persistence and stability in the cells and the culture media was performed. Through these experiments, a sub-lethal dose has been established for the initial selection of mutated material.
After the establishment of the starting dose of sethoxydim, cycloxydim, tepraloxydim, and haloxyfop in selection media, the tissues were selected in a step-wise fashion by increasing the concentration of the ACCase inhibitor with each transfer until cells are recovered that grew vigorously in the presence of toxic doses (see FIG. 2). The resulting calli were further subcultured every 3-4 weeks to R001M with selective agent. Over 26,000 calli were subjected to selection for 4-5 subcultures until the selective pressure was above toxic levels as determined by kill curves and observations of continued culture. Toxic levels were determined to be 50 μM sethoxydim, 20 μM cycloxydim, 2.5 μM tepraloxydim (FIG. 1) and 10 μM haloxyfop (not shown).

rice plants = experiment: Greenhouse spray test of regenerants, rated for herbicide injury; format: in vivo, Oryza sativa; conditions: 400-1600 g ai/ha, 0.1% methylated seed oil, 1 and 2 weeks after treatment
Experimental: Selected mutants and escapes were transferred to small pots. Wild-type cultivars and 3 biovars of red rice were germinated from seed to serve as controls.
After ca. 3 weeks post-transplant, MO regenerants were sprayed using a track sprayer with 400-1600 g ai/ha cycloxydim (BAS 517H) supplemented with 0.1% methylated seed oil. After the plants had adapted to greenhouse conditions, a subset were sprayed with 800 g ai/ha cycloxydim. Once sprayed, plants were kept on drought conditions for 24 hours before being watered and fertilized again. Sprayed plants were photographed and rated for herbicide injury at 1 (FIG. 3) and 2 weeks after treatment (FIG. 4). […] FIGS. 5-15 provide nucleic acid and/or amino acid sequences of acetyl-Coenzyme A carboxylase enzymes from various plants. FIG. 17 provides a graph showing results for mutant rice versus various ACCase inhibitors.

[1] = system: ACCase-inhibitor tolerant rice plants; experiment: Field treatment of ACCase-inhibitor tolerant rice plants; format: in vivo; conditions: 600 g/ha treatment, data not shown

| Compound | Toxic levels (rice calli) [µM] | herbicide injury (rice plants; control plants and tissue culture escapes) | herbicide injury (rice plants; plants containing the I1,781 (Am)L heterozygous mutation) | herbicide tolerance phenotypes in the field [1] |
| --- | --- | --- | --- | --- |
| CCCC(=NOCC)C1=C(O)CC(C2CCCSC2)CC1=O (stereo not shown) [cycloxydim] | 20 | heavily damaged | No injury | exhibited |
| CC(Oc1ccc(Oc2ncc(C(F)(F)F)cc2Cl)cc1)C(=O)O (stereo not shown) [haloxyfop] | 10 | – | – | – |
| CCC/C(=N\OCC)C1=C(O)CC(CC(C)SCC)CC1=O (stereo not shown) [sethoxydim] | 50 | – | – | – |
| CC/C(=N\OC/C=C/Cl)C1=C(O)CC(C2CCOCC2)CC1=O (stereo not shown) [tepraloxydim] | 2.5 | – | – | – |
